# In patent US11419913B2, “Pharmaceutical compositions for inhibiting inflammatory cytokines” (S.I.S. SHULOV INNOVATIVE SCIENCE LTD., priority 2018, dated 2022):
# Where a SMILES comes first, the peptide text is derived from it. [ ]: non-standard residue; d: D form. The star is where a group is joined. pGlu = O=C1CC[C@@H](C(=O)O)N1; Octanoyl = CCCCCCCC(=O)*
# Key:
# IL-1beta = assay: Expression of IL-1 beta by Nigericin-activated macrophages; format: cell-based, mouse; set-up: IL-1beta: unit not given here; conditions: ZEP4 50 μg/mL, LPS 100 ng/mL, Nigericin 20 mM
# Description: Macrophage cells originating from C7BL/6 mice were cultured at a density of 200,000 cells/mL in a 24-well plate (500 μl wells) and incubated at 37° C. and […] overnight. Following the overnight incubation, media were replaced with fresh media containing 100 ng/mL LPS. Three hours later, the LPS-containing media were replaced with fresh media containing 50 μg/ml ZEP4 to treatment wells. Following one-hour incubation, Nigericin (20 mM) aliquots were added to the ZEP4 treated and LPS control wells. The plates were incubated for additional 24 hour and the amount of IL-1beta in each well was measured. Reduction in […] production in the treatment group was calculated relative to cells treated with LPS and nigericin (LPS+N).
# B6 Macrophage cells = assay: Viability of macrophages activated by LPS and palmitic acid (LDH Cytotoxicity Assay Kit); format: cell-based, mouse; conditions: ZEP3 50 μg/ml, LPS 100 ng/ml; for OD (LDH Cytotoxicity Assay): 24 hours
# Description: Macrophages originating from C57BL/6 mice were cultured at a density of 200,000 cells/mL in a 24-well plate (500 μl well) and incubated at 37° C. and 5% CO2 overnight. Following the overnight incubation, media were replaced with fresh media containing 100 ng/mL LPS, followed by three hours incubation. The LPS-containing media in the treatment groups were then replaced with fresh media containing ZEP3 at concentration of 50 μg/ml, followed by one-hour incubation. Next, palmitic acid (100, 200 or 400 μM) was added to the appropriate wells. The plates were incubated for additional 24 hours and the viability of cells was estimated using an LDH Cytotoxicity Assay Kit.
# [1] = test system: Human primary Corneal Epithelial Cells; assay: Cell viability (LDH assay) in corneal epithelial cell culture dry eye disease model; format: cell-based
# Description: (§1) The anti-inflammatory effect of the peptides in experimental corneal inflammation was tested in a cell culture model using various inflammasome inducers such as LPS, 4-HNE, Nigericin and others to model a dry-eye-disease (DED). Using a dose-response model, human primary corneal epithelial cells were pre-treated with the peptides followed by exposure to DED inducers. Expression of IL-6 was measured as well as cell viability, ROS production.
# (§2) Human primary Corneal Epithelial Cells (PCS-700-010; HCECs) were treated with ZEP3 at concentrations ranging from 3 to 12 μg/ml for 2 hours then exposed to LPS, 4-HNE or Nigericin for 24 hours. Following incubation, the levels of the pro-inflammatory cytokine IL-6, cell viability and reactive oxygen species (ROS) production in the cell cultures were measured.
# IL-1B = IL-1B production in LPS-stimulated human PBMCs; format: cell-based; conditions: ZEP3 40, 100 and 150 μg/ml, 1 hr pre-treatment, LPS 24 hours; 4 donors
# Description: (§3) The effect of the peptide ZEP3 (SEQ ID NO: 1) on cytokine production was evaluated in an in vitro human model of inflammation. Human Peripheral Blood Mononuclear Cells (PBMCs) were stimulated using Lipopolysaccharide (LPS) to produce cytokines.
# (§4) Method: Briefly, cryopreserved human PBMCs of four healthy non-smokers, not on any corticosteroids or other inflammatory drugs, were grown in RPMI 1640 with 10% heat inactivated fetal bovine serum (FBS), 100 U/ml penicillin and 100 μg/mL streptomycin (complete growth medium, CGM).
# (§5) Human PBMCs were thawed and plated for all groups (1-6, Table 7), and rested for 1 hour before treatment. […] 24 hours post LPS addition, Almar Blue fluorescent at 585 nm (correlating with cell viability), is measured and supernatant is collected for cytokine determination. […]
# (§6) Detailed method: cells were thawed according to manufacturer's instructions, washed in CGM and assessed for viability using trypan blue staining. […] At 24 hours post LPS stimulation, plates were read for assessment of cell viability and cell culture supernatants were harvested and stored at −80° C. for cytokine analysis. […] Cytokine production and percentage of sample stimulation vs. the average of the stimulation control were calculated.
# IL-6 = IL-6 in corneal epithelial cell culture dry eye disease model; format: cell-based, human
# Description: as §1, §2
# [2] = test system: Reactive Oxygen Species (ROS); assay: ROS production in corneal epithelial cell culture dry eye disease model; format: cell-based, human
# Description: as §1, §2
# IL-10 = IL-10 production in LPS-stimulated human PBMCs; format: cell-based; conditions: ZEP3 40, 100 and 150 μg/ml, 1 hr pre-treatment, LPS 24 hours; 4 donors
# Description: as §3, §4, §5, §6
# IFNγ = assay: IFN-γ production in LPS-stimulated human PBMCs; format: cell-based; conditions: ZEP3 40, 100 and 150 μg/ml, 1 hr pre-treatment, LPS 24 hours; 4 donors (FIG. 9)
# Description: as §3, §4, §5, §6
SMILES,IL-1beta (IL-1beta; 24 hour),% reduction of IL-1beta (IL-1beta; relative to LPS and nigericin (LPS+N)),OD (LDH Cytotoxicity Assay) (B6 Macrophage cells; palmitic acid 100 μM),OD (LDH Cytotoxicity Assay) (B6 Macrophage cells; palmitic acid 200 μM),OD (LDH Cytotoxicity Assay) (B6 Macrophage cells; palmitic acid 400 μM),"effect on the viability of inflammation-induced macrophage cells (B6 Macrophage cells; palmitic acid 100, 200 or 400 μM)","cell death density ([1]; HCECs treated with ZEP3 and exposed to inflammation inducer, LDH assay (FIG. 6))",reduction of cell death density ([1]; ZEP3 treated vs untreated cell culture (FIG. 6)),IL-1B production (IL-1B),"level of IL-6 in cell culture (IL-6; HCECs pre-treated with ZEP3 (3 to 12 μg/ml, 2 hours), exposed to 4-HNE for 24 hr (FIG. 7))","reduction of IL-6 level (IL-6; ZEP3 treated vs untreated cell culture, 4-HNE 24 hr (FIG. 7))","level of ROS in cell culture ([2]; HCECs pre-treated with ZEP3, exposed to 4-HNE for 24 hours, DCFDA kit (FIG. 8))","reduction of ROS level ([2]; ZEP3 treated vs untreated cell culture, 4-HNE 24 hours (FIG. 8))",IL-10 production (FIG. 10) (IL-10),interferon gamma (IFNγ) production (IFNγ)
"C[C@@H](O)[C@H](NC(=O)[C@H](Cc1c[nH]c2ccccc12)NC(=O)[C@H](CC(N)=O)NC(=O)[C@@H]1CCC(=O)N1)C(=O)O [ZEP4, pGlu-Asn-Trp-Thr-OH] (HELM PEPTIDE1{[Glp].N.W.T}$$$$V2.0)",157.1,53.8%,–,–,–,–,–,–,–,–,–,–,–,–,–
"CCCCCCCC(=O)NCCCC[C@H](NC(=O)[C@H](Cc1c[nH]c2ccccc12)NC(=O)[C@H](CC(N)=O)NC(=O)[C@@H]1CCC(=O)N1)C(=O)O [ZEP3, pGlu-Asn-Trp-Lys(Octanoyl)-OH] ([pGlu]NWK(Octanoyl)-OH)",–,–,1.437,1.496,1.6095,no significant effect,3.625±1.092%,82.8%,significant reduction,38.1 ± 1.37 pg/mL,27.4%,13000±800 RFU,51.9%,significant reduction,significant reduction
